Source: paper PMC9699003, “Arene Variation of Highly Cytotoxic Tridentate Naphthoquinone-Based Ruthenium(II) Complexes and In-Depth In Vitro Studies” (Pharmaceutics, 2022)

Legend:
SW480 cells [1] = assay: Apoptosis assay (annexin V-FITC/PI, flow cytometry); details: SW480, 24 h; for early apoptotic cells / late apoptotic cells / necrotic cells / viable cells: mean ± SD
Method: Cell death induction was quantitatively analyzed via flow cytometry using double staining with FITC-conjugated annexin V (eBioscience, San Diego, CA, USA) and propidium iodide (PI, 1.0 mg/mL, Sigma-Aldrich). SW480 cells were seeded into 24-well plates (7 × 10^4 cells/well) in 600 µL MEM per well and allowed to settle for 24 h. Afterward, cells were exposed to two or three different concentrations (0.1–100 µM) of the compounds (based on their cytotoxic activity) for 24 h. After treatment, the medium was collected, and cells were washed once with 37 °C warm PBS and harvested. Following trypsinization, the cell suspension was added to the pre-collected medium and cells were centrifuged (300 g, 3 min). The supernatant was removed, and the cell pellet was resuspended with 1.5 µL FITC-conjugated annexin V in 150 µL binding buffer (10 mM HEPES/NaOH pH 7.4, 140 mM NaCl and 2.5 mM CaCl2) and incubated at 37 °C for 15 min. An amount of 1 µL of propidium iodide (PI, Thermo Fisher) was added shortly before flow-cytometric analysis using a Guava easyCyte 8HT instrument (Merck Millipore, Burlington, MA, USA) with InCyte software. Results were quantified by using the FlowJo software (TreeStar). At least three independent experiments were conducted.

SW480 cells [2] = assay: Colony formation assay; format: cell-based, human; details: SW480, 11 days, relative to untreated control
Method: For the colony formation assay, SW480 cells were seeded at a density of 350 cells/2 mL into each well of 6-well plates (CytoOne, tissue culture treated) and left to adhere for 24 h. To determine the long-term effects of the test compounds, the cells were exposed to them for 11 days at 37 °C and 5% CO2. After incubation, the wells were gently washed with 1 mL cold PBS and the colonies were fixed with 1 mL cold (4 °C) 100% methanol (Thermo Fisher, Waltham, MA, USA) for 30 min at 4 °C and washed with 1 mL PBS again. The fixed colonies were stained with 1 mL of 0.5% w/v crystal violet (Sigma-Aldrich) in methanol for 2 min and the plates were washed under tap water. After drying the plates, images of the wells were captured, and colonies were counted with the colony counting function of Fusion Fx7 software (Vilber Lourmat, Collégien, France). Results were normalized to untreated controls. Data are averaged from at least three independent experiments.

pUC19 plasmid = assay: DNA interaction assay (dsDNA plasmid, agarose gel electrophoresis); format: biochemical; details: 50 µM, up to 6 h
Method: The incubation was performed at 37 °C for different time intervals (15 min to 6 h) with continuous shaking. Additionally, 4 µL aliquots of a 6× DNA loading dye (Thermo Fisher) were added to the 20 µL reaction solution, and the DNA samples were separated in a 1% agarose gel in 1 × Tris-Borate-EDTA (TBE) buffer. Electrophoresis was initiated at 60 V for 5 min and continued at 120 V for 90 min in 1 × TBE buffer. For visualization of the DNA modification degree, the agarose gel was stained with ethidium bromide (EtBr) in 1 × TBE (0.75 µg/mL) for 20 min.

[3] = HPLC-MS stability measurements in PBS; details: PBS pH 7.4, 20 °C, 40 µM, after 4 h
Method: 4 µL of stock solution was mixed with 990 µL of PBS buffer (pH 7.4) and 6 µL DMSO to obtain a final concentration of 40 µM. After injection, the chromatogram at 225 nm and the corresponding mass spectra (positive mode) were recorded hourly (4 h) and after 24 h at 20 °C. Peak areas were determined by integrating complex signals of the respective chromatogram. The measurements were performed with an HPLC system (Agilent Technologies, […]) equipped with a C18 column (Waters, Atlantis T3 […], 1.0 × 150 mm^2) coupled to an MS (Bruker, amaZon SL, ESI, positive mode) with a flow rate of 0.2 mL/min at 20 °C and a gradient (5–95%) with Milli-Q water/ACN.

SW480 cells [4] = assay: Cellular ruthenium accumulation (ICP-MS); format: cell-based, human; details: SW480, 2 h incubation, 37 °C
Method: SW480 cells were seeded at densities of 1.8 × 10^5 cells/well in 12-well plates (CytoOne, tissue culture treated) in 1 mL of supplemented MEM per well. (As CH1/PA-1 cells tend to detach during the required washing steps, cellular accumulation studies were performed only in SW480 cells). After 24 h, compounds dissolved in DMSO and diluted in MEM were added to the cells to final concentrations of 2 µM and 5 µM, and cells were incubated at 37 °C for 2 h. During incubation, the cell number was determined from three control wells of a plate seeded in parallel to the treatment plates. After the 2 h incubation, the medium was removed and all wells were washed with 3 × 1 mL PBS, and cells were lysed by adding 400 µL HNO3 per well for 1 h at room temperature. An amount of 300 µL of each lysate was added to 7.7 mL MilliQ water to get a total volume of 8 mL, and determination of the ruthenium content was carried out by ICP-MS. The measured amount of accumulated metal was normalized to the cell number and results were given in fg [Ru]/cell from at least three independent experiments. An Agilent 7800 ICP-MS instrument (Agilent Technologies, Tokyo, Japan) equipped with an Agilent SPS 4 autosampler (Agilent Technologies, Tokyo, Japan) was used to determine the ruthenium content. The ICP-MS parameters were tuned on a daily base to achieve high sensitivity. The ICP-MS was equipped with a MicroMist nebulizer with a sample uptake rate of ∼0.2 mL/min and standard nickel cones. The Agilent MassHunter software package (Workstation Software, Version C.01.04, 2018) was used for data evaluation. The instrumental parameters can be found in the supplementary information (Table S9).

CC1=C([O-])C([O-])(n2cccn2)c2ccccc2C1=O.Cc1c(C)c(C)c(C)c(C)c1C.[Ru+2] (centres unmarked) [Compound 6]
early apoptotic cells (SW480 cells [1]; 0.1 µM): 1.0 ± 0.7%
late apoptotic cells (SW480 cells [1]; 0.1 µM): 4.7 ± 2.8%
necrotic cells (SW480 cells [1]; 0.1 µM): 17 ± 27%
viable cells (SW480 cells [1]; 0.1 µM): 77 ± 29%
early apoptotic cells (SW480 cells [1]; 1 µM): 1.1 ± 07%
late apoptotic cells (SW480 cells [1]; 1 µM): 2.0 ± 0.7%
necrotic cells (SW480 cells [1]; 1 µM): 1.0 ± 1.3%
viable cells (SW480 cells [1]; 1 µM): 96 ± 2%
early apoptotic cells (SW480 cells [1]; 10 µM): 1.1 ± 0.3%
late apoptotic cells (SW480 cells [1]; 10 µM): 3.7 ± 0.1%
necrotic cells (SW480 cells [1]; 10 µM): 0.94 ± 0.52%
viable cells (SW480 cells [1]; 10 µM): 94 ± 0%
Apoptosis / necrosis induction (in words) (SW480 cells [1]; concentrations covering the IC50 range): neither apoptotic nor necrotic cells exceeded the percentages in untreated controls
Number of colonies (SW480 cells [2]; 0.16 µM): 28 ± 12%
Number of colonies (SW480 cells [2]; 0.31 µM): 9.2 ± 3.2%
Number of colonies (SW480 cells [2]; 0.63 µM): 1.2 ± 1.1%
Influence on pUC19 (in words) (pUC19 plasmid): only a minor influence on pUC19
Percentage amount of initial complex remaining [3]: less than 70%
Ru [102]/cell (cellular accumulation) (SW480 cells [4]; 2 µM): 100 ± 15 fg
Ru [102]/cell (cellular accumulation) (SW480 cells [4]; 5 µM): 206 ± 32 fg
